Experimental data reported in PubChem BioAssay AID330 (DTP/NCI, 2004).
Where “and” joins values, the source holds several entries; their conditions need not be identical. Equal values may be shown once. Toxic doses and inconclusive results are not listed.

System: P388 leukemia ip, CD2F1 mice, survival T/C
Assay: NCI In Vivo Anticancer Drug Screen. Data for tumor model P388 Leukemia (intraperitoneal) in CD2F1 (CDF1) mice
Conditions: endpoint: median survival time, higher = longer survival
How it was run: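 Mice carrying the transplanted tumor received test compound or vehicle. Survival was recorded in each group, and the value is the treated-group measurement divided by that of the vehicle-treated control group.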

[1] = dose: 50.0 mg/kg/injection, schedule: Q01DX009 (ip), vehicle: saline
[2] = dose: 100.0 mg/kg/injection, schedule: Q01DX009 (ip), vehicle: saline
[3] = dose: 200.0 mg/kg/injection, schedule: Q01DX009 (ip), vehicle: saline
[4] = dose: 50.0 mg/kg/injection, schedule: Q01DX005 (ip), vehicle: Klucel (hydroxypropylcellulose) (HPC)
[5] = dose: 100.0 mg/kg/injection, schedule: Q01DX005 (ip), vehicle: Klucel (hydroxypropylcellulose) (HPC)
[6] = dose: 200.0 mg/kg/injection, schedule: Q01DX005 (ip), vehicle: Klucel (hydroxypropylcellulose) (HPC)
[7] = dose: 100.0 mg/kg/injection, schedule: Q01DX005 (ip), vehicle: saline with Tween-80
[8] = dose: 200.0 mg/kg/injection, schedule: Q01DX005 (ip), vehicle: saline with Tween-80
[9] = dose: 50.0 mg/kg/injection, schedule: Q01DX005 (ip), vehicle: saline
[10] = dose: 100.0 mg/kg/injection, schedule: Q01DX005 (ip), vehicle: saline

Clc1ccc(COC(Cn2ccnc2)c2ccc(Cl)cc2Cl)c(Cl)c1 (stereo not given)
T/C (dose: 9.37 mg/kg/injection, schedule: Q01DX009 (ip), vehicle: saline with Tween-80): 107 % of control
T/C (dose: 18.75 mg/kg/injection, schedule: Q01DX005 (ip), vehicle: saline with Tween-80): 99 % of control
T/C (dose: 37.5 mg/kg/injection, schedule: Q01DX005 (ip), vehicle: saline with Tween-80): 106 % of control
T/C (dose: 37.5 mg/kg/injection, schedule: Q01DX009 (ip), vehicle: saline with Tween-80): 104 % of control
T/C (dose: 75.0 mg/kg/injection, schedule: Q01DX005 (ip), vehicle: saline with Tween-80): 108 % of control
T/C (dose: 75.0 mg/kg/injection, schedule: Q01DX009 (ip), vehicle: saline with Tween-80): 112 % of control
T/C (dose: 150.0 mg/kg/injection, schedule: Q01DX005 (ip), vehicle: saline with Tween-80): 110 % of control
T/C (dose: 150.0 mg/kg/injection, schedule: Q01DX009 (ip), vehicle: saline with Tween-80): 107 % of control

CN(C)C1C(O)C2Oc3c(cc(O)c4c3C(=O)c3cc5c(c(O)c3C4=O)C(NCCO)CC(C)(O)C5)C(C)(O2)C1O (stereo not given)
T/C (dose: 6.25 mg/kg/injection, schedule: Q01DX009 (ip), vehicle: other): 104 % of control
T/C (dose: 12.5 mg/kg/injection, schedule: Q01DX009 (ip), vehicle: other): 108 % of control
T/C (dose: 25.0 mg/kg/injection, schedule: Q01DX009 (ip), vehicle: other): 123 % of control
T/C (dose: 50.0 mg/kg/injection, schedule: Q01DX009 (ip), vehicle: other): 157 % of control
T/C (dose: 100.0 mg/kg/injection, schedule: Q01DX009 (ip), vehicle: other): 157 % of control

COP(=S)(OC)SCc1cc(=O)n2c(C)cccc2n1
T/C (dose: 6.25 mg/kg/injection, schedule: Q01DX005 (ip), vehicle: distilled water + alcohol): 102 % of control
T/C (dose: 12.5 mg/kg/injection, schedule: Q01DX005 (ip), vehicle: distilled water + alcohol): 100 % of control
T/C (dose: 25.0 mg/kg/injection, schedule: Q01DX005 (ip), vehicle: distilled water + alcohol): 102 % of control

O=C(CSc1ncnc2nc[nH]c12)c1ccc([N+](=O)[O-])cc1
T/C [1]: 92 % of control
T/C [2]: 102 % of control
T/C [3]: 112 % of control

Cc1ncc([N+](=O)[O-])n1CCn1nnc2c1CCCC2
T/C (dose: 25.0 mg/kg/injection, schedule: Q04DX003 (ip), vehicle: saline): 100 % of control and 109 % of control
T/C (dose: 50.0 mg/kg/injection, schedule: Q04DX003 (ip), vehicle: saline): 100 % of control and 109 % of control
T/C (dose: 100.0 mg/kg/injection, schedule: Q04DX003 (ip), vehicle: saline): 115 % of control and 96 % of control
T/C (dose: 200.0 mg/kg/injection, schedule: Q04DX003 (ip), vehicle: saline): 99 % of control and 115 % of control

O=C(N/N=C/c1ccco1)C(=O)Nc1cccc(C(F)(F)F)c1
T/C (dose: 12.5 mg/kg/injection, schedule: Q01DX005 (ip), vehicle: Klucel (hydroxypropylcellulose) (HPC)): 95 % of control
T/C (dose: 25.0 mg/kg/injection, schedule: Q01DX005 (ip), vehicle: Klucel (hydroxypropylcellulose) (HPC)): 89 % of control
T/C [4]: 88 % of control and 95 % of control

O=C(CC(=O)c1ccc(Cl)c(Cl)c1)Cc1ccc2ccccc2n1
T/C (dose: 60.0 mg/kg/injection, schedule: Q01DX005 (ip), vehicle: saline with Tween-80): 90 % of control
T/C (dose: 120.0 mg/kg/injection, schedule: Q01DX005 (ip), vehicle: saline with Tween-80): 97 % of control
T/C (dose: 240.0 mg/kg/injection, schedule: Q01DX005 (ip), vehicle: saline with Tween-80): 88 % of control

Cc1cccc(Nc2nc(C)nc3[nH]c(Cc4ccccc4)c(C)c23)c1
T/C [4]: 86 % of control
T/C [5]: 86 % of control
T/C [6]: 88 % of control

O=c1[nH]cnc2cc3[nH]ncc3cc12
T/C (dose: 1.5 mg/kg/injection, schedule: Q01DX005 (ip), vehicle: saline with Tween-80): 95 % of control
T/C (dose: 3.0 mg/kg/injection, schedule: Q01DX005 (ip), vehicle: saline with Tween-80): 87 % of control
T/C (dose: 6.25 mg/kg/injection, schedule: Q01DX005 (ip), vehicle: saline with Tween-80): 97 % of control
T/C [7]: 89 % of control
T/C [8]: 88 % of control

COc1ccccc1C1OC(=N)C(=S)N1C (stereo not given)
T/C (dose: 60.0 mg/kg/injection, schedule: Q01DX005 (ip), vehicle: Klucel (hydroxypropylcellulose) (HPC)): 107 % of control
T/C (dose: 120.0 mg/kg/injection, schedule: Q01DX005 (ip), vehicle: Klucel (hydroxypropylcellulose) (HPC)): 111 % of control
T/C (dose: 240.0 mg/kg/injection, schedule: Q01DX005 (ip), vehicle: Klucel (hydroxypropylcellulose) (HPC)): 113 % of control

S=C(S)NCCCn1ccnc1
T/C (dose: 50.0 mg/kg/injection, schedule: Q01DX005 (ip), vehicle: saline with Tween-80): 117 % of control
T/C [7]: 109 % of control
T/C [8]: 110 % of control

CCN(CC)CC(CN(CC)CC)N(CCO)CC(C)C
T/C [9]: 93 % of control
T/C [10]: 100 % of control

CC(C)=CCCC(C)(OC1OC(CO)C(O)C(O)C1O)C1CCC2(C)C1C(O)CC1C3(C)CCC(O)C(C)(C)C3C(OC3OC(CO)C(O)C(O)C3OC3OC(C)C(O)C(O)C3O)CC12C (stereo not given) (tested in a mixture with another compound)
T/C (dose: 18.75 mg/kg/injection, schedule: Q01DX009 (ip), vehicle: Klucel (hydroxypropylcellulose) (HPC)): 101 % of control
T/C (dose: 37.5 mg/kg/injection, schedule: Q01DX009 (ip), vehicle: Klucel (hydroxypropylcellulose) (HPC)): 101 % of control
T/C (dose: 75.0 mg/kg/injection, schedule: Q01DX009 (ip), vehicle: Klucel (hydroxypropylcellulose) (HPC)): 100 % of control
T/C (dose: 150.0 mg/kg/injection, schedule: Q01DX009 (ip), vehicle: Klucel (hydroxypropylcellulose) (HPC)): 100 % of control

CC(C)C(=O)OC1(C(C)c2ccccc2)C(=O)NC(=O)NC1=O (stereo not given)
T/C (dose: 7.5 mg/kg/injection, schedule: Q01DX005 (ip), vehicle: Klucel (hydroxypropylcellulose) (HPC)): 98 % of control
T/C (dose: 15.0 mg/kg/injection, schedule: Q01DX005 (ip), vehicle: Klucel (hydroxypropylcellulose) (HPC)): 102 % of control

COc1ccc2c(=O)cc(-c3ccccc3)[nH]c2c1
T/C (dose: 12.5 mg/kg/injection, schedule: Q01DX009 (ip), vehicle: saline): 90 % of control
T/C (dose: 25.0 mg/kg/injection, schedule: Q01DX009 (ip), vehicle: saline): 98 % of control
T/C [1]: 114 % of control
T/C (dose: 65.0 mg/kg/injection, schedule: Q01DX009 (ip), vehicle: saline): 118 % of control
T/C [2]: 117 % of control and 118 % of control
T/C [3]: 99 % of control

COc1cccc2c1SCC/C2=N\OCC(O)CNC1CCCCC1 (stereo not given)
T/C (dose: 100.0 mg/kg/injection, schedule: Q04DX002 (ip), vehicle: Klucel (hydroxypropylcellulose) (HPC)): 94 % of control
T/C (dose: 200.0 mg/kg/injection, schedule: Q04DX002 (ip), vehicle: Klucel (hydroxypropylcellulose) (HPC)): 94 % of control

O=c1oc2cc(-c3c(O)c4ccccc4oc3=O)c(O)cc2s1
T/C (dose: 100.0 mg/kg/injection, schedule: Q01DX001 (ip), vehicle: Klucel (hydroxypropylcellulose) (HPC)): 113 % of control
T/C (dose: 200.0 mg/kg/injection, schedule: Q01DX001 (ip), vehicle: Klucel (hydroxypropylcellulose) (HPC)): 104 % of control
T/C (dose: 400.0 mg/kg/injection, schedule: Q01DX001 (ip), vehicle: Klucel (hydroxypropylcellulose) (HPC)): 106 % of control

O=[N+]([O-])c1cc([N+](=O)[O-])c2ccccc2c1NS(=O)(=O)c1ccc(Cl)c(Cl)c1Cl
T/C (dose: 50.0 mg/kg/injection, schedule: Q01DX009 (ip), vehicle: saline with Tween-80): 103 % of control and 122 % of control
T/C (dose: 100.0 mg/kg/injection, schedule: Q01DX009 (ip), vehicle: saline with Tween-80): 112 % of control
T/C (dose: 200.0 mg/kg/injection, schedule: Q01DX009 (ip), vehicle: saline with Tween-80): 106 % of control

O=C(O)CC(CC(=O)O)c1ccc2c(c1)OCO2
T/C [4]: 99 % of control
T/C [5]: 109 % of control
T/C [6]: 99 % of control

C=C[CH2][Sn]([CH3])([CH3])[CH2]C=C
T/C [9]: 96 % of control
T/C [10]: 107 % of control

OCCC1CCN(CC/C=C2/c3ccc(F)cc3Sc3ccc(C(F)(F)F)cc32)CC1
T/C (dose: 25.0 micrograms/kg/injection, schedule: Q01DX001 (ip), vehicle: saline): 99 % of control
T/C (dose: 50.0 micrograms/kg/injection, schedule: Q01DX001 (ip), vehicle: saline): 114 % of control and 96 % of control
T/C (dose: 100.0 micrograms/kg/injection, schedule: Q01DX001 (ip), vehicle: saline): 117 % of control

Cc1ccc2[nH]c(=O)oc2c1
T/C (dose: 25.0 mg/kg/injection, schedule: Q04DX002 (ip), vehicle: saline with Tween-80): 90 % of control
T/C (dose: 50.0 mg/kg/injection, schedule: Q04DX002 (ip), vehicle: saline with Tween-80): 101 % of control
